Experiment [1] can be described thus: Inhibition of thioredoxin-conjugated PolyQ-62 protein aggregation expressed in Escherichia coli DH5alpha at 20 uM relative to control.
Experiment [2] is described as follows: Inhibition of thioredoxin-conjugated PolyQ-62 protein aggregation expressed in Escherichia coli DH5alpha.

Turning to Ac-SNWKWWPGIF-NH2, in experiment [1], the inhibition is 57.4%. This compound also came in with an IC50 in experiment [2] of 14.6 µM. Regarding Ac-SNWKWWPGI-NH2, the inhibition in experiment [1] was determined as 7.4%. Turning to `CC[C@H](C)[C@H](NC(=O)CNC(=O)[C@@H]1CCCN1C(=O)[C@H](Cc1c[nH]c2ccccc12)NC(=O)[C@H](Cc1c[nH]c2ccccc12)NC(=O)[C@@H](CCCCN)NC(=O)[C@H](Cc1c[nH]c2ccccc12)NC(=O)[C@H](CC(N)=O)NC(=O)[C@H](CO)NC(C)=O)C(=O)N[C@@H](Cc1ccccc1)C(=O)N[C@@H](CC(=O)O)C(N)=O`, the inhibition in experiment [1] was 9.9%. Take Ac-WKWWPGIF-NH2: the inhibition in experiment [1] was found to be 85.6%. Also, half-maximal inhibition in experiment [2] (IC50) required 3.6 µM. On the same counts, the results for `CC[C@H](C)[C@H](NC(=O)[C@H](C)NC(=O)[C@@H]1CCCN1C(=O)[C@H](Cc1c[nH]c2ccccc12)NC(=O)[C@H](Cc1c[nH]c2ccccc12)NC(=O)[C@H](CCCCN)NC(=O)[C@H](Cc1c[nH]c2ccccc12)NC(=O)[C@H](CC(N)=O)NC(=O)[C@H](CO)NC(C)=O)C(=O)N[C@@H](Cc1ccccc1)C(=O)N[C@@H](CC(=O)O)C(N)=O` are 64.9% and 11.5 µM.

For the compound Ac-KWWPGIFD-NH2, the inhibition in experiment [1] stood at 5.4%.

For `CC[C@H](C)[C@H](NC(=O)[C@@H](C)NC(=O)[C@@H]1CCCN1C(=O)[C@H](Cc1c[nH]c2ccccc12)NC(=O)[C@H](Cc1c[nH]c2ccccc12)NC(=O)[C@H](CCCCN)NC(=O)[C@H](Cc1c[nH]c2ccccc12)NC(=O)[C@H](CC(N)=O)NC(=O)[C@H](CO)NC(C)=O)C(=O)N[C@@H](Cc1ccccc1)C(=O)N[C@@H](CC(=O)O)C(N)=O`, in experiment [1], the inhibition stood at 16.3%. As to Ac-ANWKWWPGIFD-NH2, the inhibition in experiment [1] was found to be 78.2%. The half-maximal inhibitory concentration (IC50) in experiment [2] is 6.3 µM. The like results for `CC[C@H](C)[C@H](NC(=O)CNC(=O)[C@@H]1CCCN1C(=O)[C@H](Cc1c[nH]c2ccccc12)NC(=O)[C@H](Cc1c[nH]c2ccccc12)NC(=O)[C@H](CCCCN)NC(=O)[C@H](Cc1c[nH]c2ccccc12)NC(=O)[C@H](CC(N)=O)NC(=O)[C@H](CO)NC(C)=O)C(=O)N[C@H](Cc1ccccc1)C(=O)N[C@@H](CC(=O)O)C(N)=O` were, in that order, 65.3% and above 20 µM. For the compound Ac-SNWKWWPGAFD-NH2, the inhibition in experiment [1] was 9.9%. For Ac-SNWKWWP-NH2, in experiment [1], the inhibition is 11.4%. For Ac-SNWKWWAGIFD-NH2, the inhibition in experiment [1] worked out at 58.9%. The compound further displayed an IC50 in experiment [2] of 10 µM.

For Ac-WKWWPGIFD-NH2, the inhibition in experiment [1] amounted to 81.2%. This compound displayed an IC50 in experiment [2] of 2.9 µM.

For the compound Ac-NWKWWPGIFD-NH2, in experiment [1], the inhibition amounted to 78.2%. Besides, half-maximal inhibition in experiment [2] (IC50) required 5 µM. On the same counts, the results for `CC[C@H](C)[C@H](NC(=O)CNC(=O)[C@@H]1CCCN1C(=O)[C@H](Cc1c[nH]c2ccccc12)NC(=O)[C@H](Cc1c[nH]c2ccccc12)NC(=O)[C@H](CCCCN)NC(=O)[C@H](Cc1c[nH]c2ccccc12)NC(=O)[C@H](CC(N)=O)NC(=O)[C@H](CO)NC(C)=O)C(=O)N[C@@H](Cc1ccccc1)C(=O)N[C@@H](CC(=O)O)C(N)=O` are 76.7% and 5 µM. As to Ac-SNAKWWPGIFD-NH2, the inhibition in experiment [1] is -4%. For the compound `CC[C@H](C)[C@H](NC(=O)CNC(=O)[C@H]1CCCN1C(=O)[C@H](Cc1c[nH]c2ccccc12)NC(=O)[C@H](Cc1c[nH]c2ccccc12)NC(=O)[C@H](CCCCN)NC(=O)[C@H](Cc1c[nH]c2ccccc12)NC(=O)[C@H](CC(N)=O)NC(=O)[C@H](CO)NC(C)=O)C(=O)N[C@@H](Cc1ccccc1)C(=O)N[C@@H](CC(=O)O)C(N)=O`, in experiment [1], the inhibition stood at 25.7%.

As for `CC[C@H](C)[C@H](NC(=O)CNC(=O)[C@@H]1CCCN1C(=O)[C@H](Cc1c[nH]c2ccccc12)NC(=O)[C@H](Cc1c[nH]c2ccccc12)NC(=O)[C@H](CCCCN)NC(=O)[C@H](Cc1c[nH]c2ccccc12)NC(=O)[C@H](CC(N)=O)NC(=O)[C@@H](CO)NC(C)=O)C(=O)N[C@@H](Cc1ccccc1)C(=O)N[C@@H](CC(=O)O)C(N)=O`, in experiment [1], the inhibition is 83.2%. This compound returned an IC50 in experiment [2] of 4.4 µM.

As to `CC[C@H](C)[C@H](NC(=O)CNC(=O)[C@@H]1CCCN1C(=O)[C@@H](Cc1c[nH]c2ccccc12)NC(=O)[C@H](Cc1c[nH]c2ccccc12)NC(=O)[C@H](CCCCN)NC(=O)[C@H](Cc1c[nH]c2ccccc12)NC(=O)[C@H](CC(N)=O)NC(=O)[C@H](CO)NC(C)=O)C(=O)N[C@@H](Cc1ccccc1)C(=O)N[C@@H](CC(=O)O)C(N)=O`, the inhibition in experiment [1] turned out to be 8.4%. For the compound Ac-SNWKAWPGIFD-NH2, the inhibition in experiment [1] is -5.4%.

Regarding Ac-SNWKWWPGIFA-NH2, the inhibition in experiment [1] was found to be 67.8%. The compound also registered an IC50 in experiment [2] of 15.6 µM. As to Ac-SNWKWWPGIAD-NH2, in experiment [1], the inhibition worked out at 11.4%. With `CC[C@H](C)[C@H](NC(=O)CNC(=O)[C@@H]1CCCN1C(=O)[C@H](Cc1c[nH]c2ccccc12)NC(=O)[C@H](Cc1c[nH]c2ccccc12)NC(=O)[C@H](CCCCN)NC(=O)[C@H](Cc1c[nH]c2ccccc12)NC(=O)[C@H](CC(N)=O)NC(=O)[C@H](CO)NC(C)=O)C(=O)N[C@@H](Cc1ccccc1)C(=O)N[C@H](CC(=O)O)C(N)=O`, the inhibition in experiment [1] turned out to be 77.2%. In experiment [2], this compound had an IC50 of 5 µM. For the compound `CC[C@H](C)[C@H](NC(=O)CNC(=O)[C@@H]1CCCN1C(=O)[C@H](Cc1c[nH]c2ccccc12)NC(=O)[C@H](Cc1c[nH]c2ccccc12)NC(=O)[C@H](CCCCN)NC(=O)[C@@H](Cc1c[nH]c2ccccc12)NC(=O)[C@H](CC(N)=O)NC(=O)[C@H](CO)NC(C)=O)C(=O)N[C@@H](Cc1ccccc1)C(=O)N[C@@H](CC(=O)O)C(N)=O`, the inhibition in experiment [1] came out at 41.1%. Take Ac-SNWKWWPG-NH2: the inhibition in experiment [1] was 5.9%. As for `CC[C@H](C)[C@H](NC(=O)CNC(=O)[C@@H]1CCCN1C(=O)[C@H](Cc1c[nH]c2ccccc12)NC(=O)[C@H](Cc1c[nH]c2ccccc12)NC(=O)[C@H](CCCCN)NC(=O)[C@H](Cc1c[nH]c2ccccc12)NC(=O)[C@@H](CC(N)=O)NC(=O)[C@H](CO)NC(C)=O)C(=O)N[C@@H](Cc1ccccc1)C(=O)N[C@@H](CC(=O)O)C(N)=O`, the inhibition in experiment [1] stood at 80.7%. Also, half-maximal inhibition in experiment [2] (IC50) was put at 4.5 µM. The like results for Ac-SNWAWWPGIFD-NH2 were, in that order, 78.2% and 8.5 µM. Regarding `CC[C@H](C)[C@H](NC(=O)CNC(=O)[C@@H]1CCCN1C(=O)[C@H](Cc1c[nH]c2ccccc12)NC(=O)[C@@H](Cc1c[nH]c2ccccc12)NC(=O)[C@H](CCCCN)NC(=O)[C@H](Cc1c[nH]c2ccccc12)NC(=O)[C@H](CC(N)=O)NC(=O)[C@H](CO)NC(C)=O)C(=O)N[C@@H](Cc1ccccc1)C(=O)N[C@@H](CC(=O)O)C(N)=O`, in experiment [1], the inhibition is 6.4%. In the case of Ac-WWPGIFD-NH2, in experiment [1], the inhibition was found to be 5%. As for Ac-SAWKWWPGIFD-NH2, the inhibition in experiment [1] turned out to be 82.2%. The compound further came in with a half-maximal inhibitory concentration (IC50) in experiment [2] of 4.3 µM.

Turning to `CC[C@H](C)[C@@H](NC(=O)CNC(=O)[C@@H]1CCCN1C(=O)[C@H](Cc1c[nH]c2ccccc12)NC(=O)[C@H](Cc1c[nH]c2ccccc12)NC(=O)[C@H](CCCCN)NC(=O)[C@H](Cc1c[nH]c2ccccc12)NC(=O)[C@H](CC(N)=O)NC(=O)[C@H](CO)NC(C)=O)C(=O)N[C@@H](Cc1ccccc1)C(=O)N[C@@H](CC(=O)O)C(N)=O`, the inhibition in experiment [1] stood at 33.2%.

A word on the inhibition: it is the relative decrease from the control value, in per cent. Usually IC50 stands for the concentration needed to halve the response being measured. A low value points to greater potency in that assay.

The values above are taken from ChEMBL document CHEMBL1143336, “Structure-activity relationship study on polyglutamine binding peptide QBP1” (Bioorg Med Chem, 2009).
